Experimental data: PMC7278776, “Multidrug Resistance Modulation Activity of Silybin Derivatives and Their Anti-Inflammatory Potential” (Antioxidants, 2020)

Columns and labels:
[1] = ORAC (oxygen radical absorption capacity) assay; details: fluorescein/AAPH; read-out: ORAC, concentration necessary to halve the fluorescence response (IC50)
Description: Antioxidant capacity of samples was determined by ORAC (oxygen radical absorption capacity) and CAA (cellular antioxidant activity) assays. ORAC assay was realized by the previously described protocol. Briefly, 50 µL of the fluorescein solution (1.6 µg/mL in phosphate-buffered saline (PBS), pH 7.4) was added by a dispenser (MultiFlo Microplate Dispenser, BioTek Instrument, Winooski, VT, USA) into each well of a 96-well plate. Subsequently, 2 µL of tested compound in the concentration range 1.25–20 µM and 23 µL of PBS were added to the wells. The plate was incubated for 15 min at 37 °C and then 25 µL of AAPH (60 mg/mL) was added to each well. AAPH was replaced with PBS for the negative control. Immediately, the fluorescence was recorded by the microplate reader (SpectraMax i3 Multi-Mode Detection Platform, Molecular Devices, San Jose, CA, USA) for 2 h in 5 min steps (excitation/emission 485/535 nm).

A2780/DOX [2] = experiment: Viability of A2780/DOX cells (resazurin); details: Homo sapiens, A2780, read-out: IC50 (µM), concentration necessary to halve cell viability
Description: To determine the NO production, the medium was mixed with Griess reagent (0.04 g/mL, prepared in deionized water) in a 1:1 ratio. After 15 min, absorbance was recorded at 540 nm. To determine cell viability, the resazurin solution (0.03 mg/mL in PBS) was added to the cells. After 2 h of incubation, fluorescence was recorded (560/590 nm, ex./em.).
A multidrug resistant ovarian sub-line resistant to doxorubicin (A2780/DOX, Sigma-Aldrich) was cultivated in DMEM medium with 10% FBS and 1 × antibiotic antimycotic solution. Every other passage, doxorubicin at the final concentration of 0.1 µM was added to the culture medium to maintain the resistance of the cell line. To perform experiments, the cells were seeded at 1 × 10^5 cell/mL into the wells of a 96-well plate and incubated for 24 h. Afterwards, the cells were washed with PBS and fresh DMEM medium with tested compounds at 10, 20 and 30 µM were added to each well, except for the control wells. Subsequently, the cells were exposed to increasing concentrations of doxorubicin (0.6–20 µM) for 72 h. After incubation, the resazurin assay was performed as described above. The IC50 of doxorubicin was calculated for both the control and the samples and the fold change was counted up. […] The fold change lower than 1 means an antagonistic effect. (1) FOLD CHANGE=IC50 value of DOX cells treated with chemotherapeutic /IC50 value of DOX cells treated with chemotherapeutic and compound

A2780/DOX [3] = experiment: Sensitization of the MDR cell line to doxorubicin; type: cell-based, human
ABCA3 = ABCA3 mRNA expression (real-time PCR); type: cell-based, human; details: A2780/DOX, 10 µM combined with doxorubicin at IC25, 48 h
Description: (§1) The A2780/DOX cell line was seeded into 5 cm Petri dishes with DMEM medium at 1 × 10^5 cell/mL. After 24 h, the dishes were washed with PBS and new DMEM medium supplemented with doxorubicin (at concentration equal to IC25) and samples (10 µM) were added. After 48 h of treatment, the cells were washed with PBS and harvested using the standard trypsin-EDTA procedure. The harvested cells were centrifuged (3200× g; 10 min, 4 °C). The supernatant was discarded, and the pellets were washed with 1.5 mL of cooled PBS (5400× g; 10 min, 4 °C). The washing step was repeated with 1 mL of PBS and the cells were centrifuged again (10,000× g; 3 min, 4 °C). Afterwards, the pellets were resuspended in 1 mL of Trizol (Invitrogen, Carlsbad, CA, USA) and transferred into pre-cooled RNase-free microfuge tubes. The samples were stored at −80 °C.
(§2) A Quant-iT RiboGreen RNA Assay Kit (Invitrogen) was used to determine the RNA concentration using the Infinite M200 plate reader (Tecan, Männedor, Switzerland). The cDNA was prepared from 0.5 µg of total RNA using a RevertAid First Strand Synthesis cDNA Kit (MBI Fermentas, Vilnius, Lithuania). The amplification of the ubiquitin C gene fragment was used to determine the quality of cDNA.
(§3) The experiment was performed using the ViiA7 Real-Time polymerase chain reaction (PCR) System (Life Technologies, Camarillo, CA, USA) with a 384-well block. Before quantitative real-time PCR, the master mix was prepared by mixing 2 µL of 8 × diluted cDNA, 1.75 µL of RNase free water, 1 µL of 5 × HotFIREPol Probe quantitative PCR Mix Plus (Solis Biodyne, Tartu, Estonia) and 0.25 µL of specific 20 × TaqMan Gene Expression Assay (Life Technologies), giving 5 µL of final reaction volume. Cycling parameters were: initial hold at 50 °C for 2 min and denaturation at 95 °C for 10 min, followed by 45 cycles consisting of denaturation at 95 °C for 15 s and annealing/extension at 60 °C for 1 min. After each extension phase, the fluorescence values were acquired. Duplicate samples were used for measurement and samples with a standard deviation of duplicates > 1.0 cycle threshold (Ct) were re-analyzed. The real time PCR procedure was maintained according to MIQE (Minimum information for publication of quantitative real-time PCR experiments) guidelines. The software REST 2009 (Qiagen, Hilden, Germany) served to compare relative transcript levels of genes in the cell line.

ABCA5 = ABCA5 mRNA expression (real-time PCR); type: cell-based, human; details: A2780/DOX
Description: as §1, §2, §3

ABCB6 = ABCB6 mRNA expression (real-time PCR); type: cell-based, human; details: A2780/DOX
Description: as §1, with “After 24 h, the dishes were washed with PBS and new DMEM medium supplemented with doxorubicin (at concentration equal to IC25) and samples (10 µM) were added.” left out
as §2, §3

ABCF1 = ABCF1 mRNA expression (real-time PCR); type: cell-based, human; details: A2780/DOX
Description: as §1, §2, §3

ABCF3 = ABCF3 mRNA expression (real-time PCR); type: cell-based, human; details: A2780/DOX
Description: as §1, with “After 24 h, the dishes were washed with PBS and new DMEM medium supplemented with doxorubicin (at concentration equal to IC25) and samples (10 µM) were added.” left out
as §2, §3

ABCG2 (BCRP) = experiment: ABCG2 mRNA expression (real-time PCR); type: cell-based, human; details: A2780/DOX
Description: as §1, with “After 24 h, the dishes were washed with PBS and new DMEM medium supplemented with doxorubicin (at concentration equal to IC25) and samples (10 µM) were added.” left out
as §2, §3

ABCC5 = ABCC5 mRNA expression (real-time PCR); type: cell-based, human; details: A2780/DOX, 10 µM, 48 h, without doxorubicin
[4] = 10 µM combined with doxorubicin at IC25, 48 h
[5] = 10 µM, 48 h, without doxorubicin

Row | Compound | IC50 [1] [µM] | IC50 (A2780/DOX [2]) [µM] | Doxorubicin-sensitization rate (ratio of IC50 of doxorubicin and doxorubicin + tested compound) (A2780/DOX [3]; compound 10 µM) | Doxorubicin-sensitization rate (ratio of IC50 of doxorubicin and doxorubicin + tested compound) (A2780/DOX [3]; compound 20 µM) | Doxorubicin-sensitization rate (ratio of IC50 of doxorubicin and doxorubicin + tested compound) (A2780/DOX [3]; compound 30 µM) | ABCA3 Expression Difference (ABCA3) | ABCA5 Expression Difference (ABCA5; [4]) | ABCB6 Expression Difference (ABCB6; [4]) | ABCF1 Expression Difference (ABCF1; [4]) | ABCF3 Expression Difference (ABCF3; [4]) | ABCF3 Expression Difference (ABCF3; [5]) | ABCG2 Expression Difference (ABCG2 (BCRP); [4]) | ABCC5 Expression Difference (ABCC5) | Doxorubicin-sensitization rate (ratio of IC50 of doxorubicin and doxorubicin + tested compound) (A2780/DOX [3]; compound 50 µM) | also measured
1 | COc1cc([C@H]2Oc3cc(-c4oc5cc(O)cc(O)c5c(=O)c4O)ccc3O[C@@H]2CO)ccc1O [Dehydrosilybin A, 2,3-dehydrosilybin A] | 11.4 ± 1.2 | 74.4 ± 4.8 | (2.1 ± 0.3) × | (2.5 ± 0.2) × | (9.5 ± 0.7) × | 1.042 | 1.223 | 1.149 | 0.920 | 1.096 | 1.602 | 1.259 | – | – | Doxorubicin-sensitization rate (ratio of IC50 of doxorubicin and doxorubicin + tested compound) (A2780/DOX [3]; compound 30 µM, listed as dehydrosilybin A): ~10 ×
2 | COc1cc(C2Oc3cc(-c4oc5cc(O)cc(O)c5c(=O)c4O)ccc3OC2CO)ccc1O (stereo not shown) [Dehydrosilybin AB, 2,3-dehydrosilybin] | 10.1 | 33.6 ± 0.4 | (2.4 ± 0.2) × | – | – | 0.943 | 1.254 | 1.262 | 0.923 | 1.326 | 1.706 | 1.698 | 1.519 | – | ABCF1 Expression Difference (ABCF1; [5]): 0.322; ABCF1 Treated vs. Untreated (ABCF1; [5]): DOWN; ABCG2 Expression Difference (ABCG2 (BCRP); [5]): 1.921
3 | COc1cc([C@@H]2Oc3cc(-c4oc5cc(O)cc(O)c5c(=O)c4O)ccc3O[C@H]2CO)ccc1O [Dehydrosilybin B, 2,3-dehydrosilybin B] | 11.8 ± 0.6 | 27.1 ± 0.4 | (2.0 ± 0.1) × | – | – | 1.060 | 1.707 | 1.343 | 0.784 | 1.963 | – | 1.948 | – | – | –
4 | COc1cc([C@H]2Oc3cc([C@H]4Oc5cc(O)cc(O)c5C(=O)[C@@H]4O)ccc3O[C@@H]2CO)ccc1O [Silybin A, silybin A] | 6.6 ± 0.3 | 252 ± 7.6 | (1.3 ± 0.1) × | (1.6 ± 0.2) × | (1.9 ± 0.1) × | – | 2.427 | 1.665 | – | 1.570 | – | 2.415 | – | (3.6 ± 0.3) × | –
5 | COc1cc(C2Oc3cc([C@H]4Oc5cc(O)cc(O)c5C(=O)[C@@H]4O)ccc3OC2CO)ccc1O (stereo partly shown) [Silybin AB, silybin] | 7.1 ± 0.6 | 197 ± 4 | (1.4 ± 0.1) × | (1.6 ± 0.1) × | (1.7 ± 0.1) × | 1.142 | 2.122 | 1.527 | 0.137 | 1.554 | 1.440 | 2.373 | 1.819 | (7.7 ± 0.4) × | Doxorubicin-sensitization rate (ratio of IC50 of doxorubicin and doxorubicin + tested compound) (A2780/DOX [3]; compound 50 µM, listed as silybin AB): ~10 ×; ABCA5 Expression Difference (ABCA5; [5]): 1.933; ABCB6 Expression Difference (ABCB6; [5]): 1.838; ABCF1 Treated vs. Untreated (ABCF1; [4]): DOWN
